A melting point compilation (Tetko et al.; mined from patent text by program, amines drawn as free bases though some values may be those of a salt)

Compound	melting point [°C]
COc1cc(OC)cc(-c2ncn(C)c2-c2ccc3c(c2)NCCO3)c1	175 to 178
Cc1nc(C(F)(F)F)ccc1C(=O)c1c(S(C)=O)noc1C1CC1 (stereo not drawn)	96 to 97
CCCCCC(=O)NS(=O)(=O)CCc1cc(OCCCC)nn1Cc1ccc(Cl)cc1Cl	90 to 92
Oc1cccc2c1ccn2CCCCCc1ccccc1	109 to 110
Cn1cc(C(=O)C(=O)N2CCN(c3nc4cc(C(=O)Nc5nc(C(C)(C)C)cs5)ccn4c(=O)c3/C=C/C(=O)O)CC2)nc1N	210 to 216
O=C(C1CN(S(=O)(=O)c2ccc3cc(Br)ccc3c2)CCN1C(=O)C1CCN(c2ccncc2)CC1)N1CCSCC1 (stereo not drawn)	250 to 258
CNC1CN(c2cc3c(cc2F)c(=O)c(C(=O)O)cn3C2CC2)C1	245 to 249
CCSc1ncnc2c(N3CCCCC3)nc(Cl)nc12	110 to 111
CCCCCCCCCCCCCCCCCC(=O)NCCO	96 to 99
Cc1cc(=O)[nH]c(NC(=N)Nc2ccccc2)n1	265
Cc1cccc2nc3n(c12)CC(c1ccccn1)S3=O (stereo not drawn)	148
CC1CC(=O)NN=C1c1ccc(NC(=O)C2CC2)cc1 (stereo not drawn)	267 to 268
CN(CCCS(=O)CCCC(F)(F)C(F)(F)F)CCOc1ccc(C2=C(c3ccccc3)CCCc3cc(O)ccc32)cc1 (stereo not drawn)	63 to 65
O=C(O)COc1cc2c(-c3ccc(Cl)cc3)csc2c(Cl)c1Cl	206 to 208
COC(=O)c1ccoc1-c1cccc([N+](=O)[O-])c1	93 to 94
C#Cc1ccc2c(c1)C(C)(C)CCS2=O (stereo not drawn)	105 to 107
Clc1cc(-c2ccccc2)ncn1	95 to 98
CCCC(=O)C(=O)C(CC1CCCCC1)NC(=O)C(CC(C)C)NC(=O)C(Cc1ccccc1)NC(=O)C1CCCC1 (stereo not drawn)	152 to 161
CC(C)C(=O)N1CCN(c2ccc(NC(=O)c3ccccn3)cc2Cl)CC1	156 to 158
O=S1(=O)CCC=C(O)c2cc(Cl)ccc21	166 to 168
CC(C)(C)c1csc(NC(=O)c2ccn3c(=O)c(/C=C/C(=O)O)c(N4CCCC(CC(=O)NCCO)C4)nc3c2)n1 (stereo not drawn)	167 to 175
Cc1ccc(Sc2cc3c(cc2Sc2ccc(C)cc2)C(=O)c2c(c(O)c4cc(Sc5ccc(C)cc5)c(Sc5ccc(C)cc5)cc4c2O)C3=O)cc1	> 265
CCCNC(=O)C(C#N)=NNc1ccccc1-c1ccccc1	180 to 184
COc1cccc(C=O)c1OCc1ccccc1	41 to 43
Cc1c(C)c2c(c(C)c1NC(=O)CC(C)(C)C)C(O)C(C)(C)O2 (stereo not drawn)	204 to 206

Compound	melting point [°C]
CNC(=O)N1CC(Oc2cccc(Br)c2)C1	134 to 135
Cc1cc(OCc2ccccc2F)c2cccc(O)c2n1	124 to 125
CCc1cccc(CC)c1-n1cncc1C(N)=O	171 to 172
CCCCCNS(=O)(=O)NC(=O)OCc1ccc(OCCOC)cc1Oc1ncc(C(F)(F)F)cc1Cl	153 to 155
Nc1ccc(Cn2cnc3c(-c4ccco4)ncnc32)cc1	195 to 197
Cc1ccc2[nH]c(S(=O)(=O)CC(F)(F)F)nc2c1	160 to 161
COc1ccc(Cc2ccc3[nH]c(=S)[nH]c3c2)cc1OC	248 to 250
Cc1cc(N(C)C)nc2ccc(Br)cc12	81.9 to 84.1
CC1Cc2cc3c(cc2C(c2ccc([N+](=O)[O-])cc2)=NN1C1=NCCO1)OCO3 (stereo not drawn)	194 to 196
CCOC(=O)C1=Cc2cc(Cl)ccc2N(C)C1C(F)(F)F (stereo not drawn)	118 to 120
CS(=O)c1ccc2nc3sc(C(=O)O)cn3c(=O)c2c1 (stereo not drawn)	243 to 244
CC1(O)ON=C(c2ccc(Br)cc2)C1c1ccccc1 (stereo not drawn)	153
CCOC(=O)C1=C(C)NC(C)=C(C(=O)OCC(F)(F)F)C1c1cccc([N+](=O)[O-])c1 (stereo not drawn)	192
CCOCC(=Nc1ccc(Cl)cc1C(F)(F)F)n1ccnc1	49 to 52
CCOC(=O)C1=Cc2cc(C)c(O)cc2OC1C(F)(F)F (stereo not drawn)	151 to 153
COC(=O)CCCc1cc2nc(Cl)ccc2n1S(=O)(=O)c1cccc(-c2ccnc(C)n2)c1	140 to 144
Cc1onc(-c2ccccc2)c1-c1[nH]c2ccccc2c1CCC(=O)N(C)C	174 to 177
Cn1nnc2ccc(C(c3ccc(Cl)cc3)n3cncn3)cc21 (stereo not drawn)	130 to 135
CCc1nc(C)cn1-c1ccc2nc(NC(=O)c3ccc(C(C)(C)C)cc3)cn2n1	220 to 221
NS(=O)(=O)c1ncccc1C(F)(F)F	135 to 140
CCOC(=O)c1ncc2c(c1COC)c1c(Cc3ccccc3Cl)cccc1n2S(=O)(=O)c1ccc(C)cc1	140 to 142
Cc1cc2c(-c3ccccc3Cl)c(N)c(=O)n(C)c2cc1C	242 to 243
Cc1ccc(-c2nc(Cc3cc4cc(C=O)ccc4o3)c(C)o2)cc1	126 to 130
CC[C@]12CC[C@H]3[C@@H](CC(Cl)C4=CC(=O)CC[C@@H]43)[C@@H]1C=CC2=O (stereo partly drawn)	136
CC(=O)Nc1ccc(OC(F)F)c(OC(F)F)c1	65 to 67

Compound	melting point [°C]
CC1(C)CCCN(CCNc2ccnc3cc(Cl)ccc23)C1	151 to 153
O=c1c2c(Cc3cccs3)n[nH]c2c2cccnc2n1-c1ccccc1	282 to 284
O=C(O)[C@H]1CCCN1C(=O)CCS	68 to 70
ClCCCCOc1ccc2ccccc2c1	112
COC(=O)c1cccc2c1CN(c1c(F)cc3c(=O)c(C(=O)O)cn(-c4ccc(F)cc4)c3c1F)C2	283 to 287
O=S(=O)(c1ccc(F)cc1)N1CCCC1c1ccc(C(F)(F)F)cc1 (racemic)	114
CC1(C)C(=O)Nc2cc3[nH]c(C(F)(F)F)nc3cc21	175 to 177
CC1CN(c2c(F)cc3c(=O)c(C(=O)O)cn4c3c2CC4C)CC(C)N1C (single isomer, unassigned; (+))	204 to 206
Oc1cc2c3cc(O)c(O)cc3n(Cc3cccnc3)c2cc1O	290 to 294
c1ccc(COc2ccc(Nc3ncnc4ncccc34)cc2)cc1	235 to 237
CCN1C(=O)CCc2cnc(Nc3ccccc3)cc21	137 to 138
COc1csc2ccc(C(=O)CC(=O)C3CC3)c(OC)c12	77.5 to 80
CCc1cnc(-c2ccc(OC)cc2)c(-c2ccc(OC)cc2)n1	76.5 to 78
O=C1Cc2c(-c3ccccc3)ccc(Cl)c2N1	234 to 236
CCC(CC)Nc1cc(COC(C)=O)c([N+](=O)[O-])cc1[N+](=O)[O-]	46 to 52
COc1cc2nc(Cl)n3cnnc3c2cc1OC	269 to 271
CCCCn1c(=O)c2c(ncn2S(=O)(=O)CCCC)n(CCCC)c1=O	55 to 57
N#CCc1ccc(OCc2ccccc2)cc1OCc1ccccc1	99 to 100
COc1ccc(C(=O)CCC(=O)c2ccc3ccccc3c2)cc1OC	133
CC(=O)Nc1cnc(C=NNC(N)=S)cc1C	229 to 231
CCCCc1ncc(C=C(Cc2cccs2)C(=O)O)n1Cc1cccc(C(=O)O)c1	243 to 244
Nc1nc2c(ncn2COC(CC(=O)OC23CC4CC(CC(C4)C2)C3)CC(=O)OC23CC4CC(CC(C4)C2)C3)c(=O)[nH]1 (stereo not drawn)	283 to 285
Nc1ccc(OC[C@@H]2CCCN2c2ccc3ccccc3n2)cc1	138 to 140
CCC1(CC)OC(=S)Nc2ccc(-c3cccc(Cl)c3)cc21	148 to 150
CN1C(=O)CC[C@]2(C)c3ccc(-c4ccc(Cl)cc4)cc3CC[C@@H]12	192

Compound	melting point [°C]
Nc1ccc(N=Nc2ccc([N+](=O)[O-])c(C(F)(F)F)c2)cc1	136
CN(C)CCCC(=O)N1CCC(C2c3ncc(Br)cc3CCc3cc(Cl)cc(Br)c32)CC1 (single isomer, unassigned; (+))	78 to 80
Cc1nnc2ncc(-c3ccccc3)cn12	199 to 200
CCOc1cnccc1-c1nc2n(C3CCCC3)[nH]c(CC)c-2c(=O)n1	179 to 180
COC(=O)C1=C(C)NC(C)=C(C(=O)OCCN2CCCN(C(c3ccccc3)c3ccccc3)CC2)C1c1cccc([N+](=O)[O-])c1 (stereo not drawn)	60 to 63
CCC(CC)c1ccc(Cl)c2[nH]c(=O)n(C)c12	165 to 166
CCOC(=O)CN(C)C(=O)c1ccsc1C(=O)c1ccc(F)cc1	127 to 129
COc1ccc(C(=O)Nc2c(C)c(C)c3c(c2C)C(c2ccc(C(C)C)cc2)C(C)(C)O3)cc1OC (stereo not drawn)	171 to 173
CON(c1ccc([N+](=O)[O-])cc1[N+](=O)[O-])S(=O)(=O)c1ccccc1Cl	112 to 114
CCOC(=O)Cn1c2c(c3ccc(Cl)c(Cl)c31)CCN(C(=O)OC(C)(C)C)CC2	132 to 135
CN(C)Cc1ccc(C2(O)CCC3(CC2)OCCO3)cc1	84 to 86
N#Cc1cccc2c1C(=O)C(O)=C(O)C2=O	305 to 312
c1ccc(-c2nc3cnccc3[nH]2)cc1	225 to 226
CC1(C)Cc2cccc(Oc3c(Cl)cc([N+](=O)[O-])cc3Cl)c2O1	105 to 110
O=C(Nc1cccc(Br)n1)Nc1cccc2c1C1CCCCN1C2=O (stereo not drawn)	218 to 220
Nc1cccc(C(=O)c2ccc(-c3ccc(C(=O)c4cccc(N)c4)cc3)cc2)c1	217 to 218
CC1(O)CCN(C(=O)C(c2ccccc2)n2cnc3[nH]ncc3c2=S)CC1 (stereo not drawn)	140 to 144
CCc1cn(C2CC(O)C(CO)O2)c(=O)nc1NC(=O)c1ccccc1 (stereo not drawn)	172 to 174
CCc1cc(NC(=O)N2CCN(c3cc(C)cc(C)c3)CC2)c(N2CCNCC2)nc1C	100 to 102
O=[N+]([O-])c1cnc(Sc2nnc(O)n2-c2ccccc2)s1	188 to 190
Cc1cccc2sc(NN)nc12	161 to 166
C=CCN(C)c1nc(-c2ccc(OC)cc2)nc2sc(C#N)c(C)c12	126 to 128
CCOC(=O)c1c(CCBr)nc2cc(OC)c(OC)cc2c1-c1ccc(OC)c(OC)c1	132 to 133
